We go through one compound from patent publication US12440479B2, “Prevention or treatment of chronic organ injury” (GEORG-AUGUST-UNIVERSITAET GOETTINGEN, STIFTUNG …, priority 2018, dated 2025).

The nature of series [1]: FK506 blood concentration measurements (ELISA, whole blood). The class given is in vivo, mice. The procedure: FK506 concentration in whole blood samples of mice was measured using colorimetric FK506 Elisa Kit (Abnova, Taipei, […]) according to the manufacturer's protocol. Briefly, 25 μL of whole blood samples and standard solutions containing 0, 2, 10 and 50 ng/mL FK506 were analyzed by OD measurements at 450 nanometer (nm) wavelength.
For orientation: An ELISA detects its analyte on a solid surface through an enzyme-linked reagent.

In series [2] the target is FKBP12/YY1 (Mus musculus, UniProt P26883). The series is described as follows: Co-immunoprecipitation after Yy1 pull-down in cultured TECs. The conditions noted are these: FK506 added to culture media, IP: Yy1. The class given is cell-based.
Sequence of FKBP12/YY1 (P26883 whole entry): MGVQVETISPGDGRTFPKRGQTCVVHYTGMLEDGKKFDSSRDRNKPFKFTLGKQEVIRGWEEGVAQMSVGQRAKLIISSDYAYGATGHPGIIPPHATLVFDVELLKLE
Description: (§1) CoIP was performed with Protein G Immunoprecipitation Kit (Roche, Basel, Switzerland). Protein A/G PLUS Agarose beads (Santa Cruz Biotechnology, Santa Cruz, USA) were used for the lysate pre-cleaning and pull-down. For each CoIP, 2×10^7 MCT cells have been used following the manufacturer's instructions. Yy1 (ab12132, Abcam Biochemicals, Cambridge, UK), Fkbp12 (ab2918, Abcam Biochemicals, Cambridge, UK), Arnt (3718, Cell Signaling, Danvers, USA), GFP (MA5-15256, Thermo Fisher Scientific, Waltham, USA) and myc-tag antibodies (2276, Cell Signaling, Danvers, USA) were used for immunoprecipitation, detection of co-immunoprecipitated Fkbp12 (ab12132, Abcam Biochemicals, Cambridge, UK), Hif1α ([MUT], Sigma, St. Louis, USA), Ahr (MA1-514, Thermo Fisher Scientific, Waltham, USA), GFP (MA5-15256, Thermo Fisher Scientific, Waltham, USA) and myc-tag (2276, Cell Signaling, Danvers, USA) was performed by immunoblotting.
Series [3] concerns ARNT/HIF1α, ARNT/AHR. The series is described as follows: Co-immunoprecipitation using antibodies to ARNT in cultured TECs. The class given is cell-based, mouse. The conditions noted are these: cultured TECs in response to FK506 (200 pM), IP: Arnt.
Description: as §1
Series [4] relates to ARNT proximal promoter. The series is described as follows: ChIP PCR after Yy1 pull-down. The format is cell-based, mouse. The conditions noted are these: cultured TECs, FK506 added to culture media. As to the method: DNA and protein interaction was performed with the OneDay ChIP Kit (Diagenode, Seraing, Belgium) according to the manufacturer's instructions. 2×10^7 MCT cells have been used for each ChIP reaction. Cell lysates were sonicated using an ultrasonic processor S-4000 (Misonix, Farmingdale, USA). Immunoprecipitation was performed with a ChIP grade antibody against Yy1 (ab12132, Abcam Biochemicals, Cambridge, UK) and Arnt (3718, Cell Signaling, Danvers, USA). Enriched DNA was analyzed by qRT-PCR with EpiTect ChIP qPCR primers for genomic Arnt (Qiagen, Hilden, Germany), oligonucleotide sequences for genomic Alk3 are listed in Table 10.

Series [5] concerns ARNT dimers. The series is described as follows: Native gel analysis of total kidney lysates after Arnt pulldown (UUO mice). The format is in vivo. The conditions noted are these: UUO mice treated with FK506; without interaction with HIF1α, HIF2α or AHR. An excerpt: Tissue and cells were homogenized in NP40 lysis buffer (Life technologies, Carlsbad, USA) supplemented with protease inhibitor cocktail (Roche, Basel, Switzerland). After sonication, protein samples were resolved by a 4-12% Bis-Tris polyacrylamide gel electrophoresis system (Novex, Carlsbad, USA) and transferred onto a nitrocellulose membrane (GE Healthcare, Freiburg, Deutschland), followed by a blocking step with 5% dry milk or 5% bovine serum albumin (BSA) in TBS-T (TBS pH 7.2, 0.1% Tween-20) to prevent unspecific bindings. After incubation with respective primary antibodies against ALK3 (ABD51, Merck Millipore, Billerica, USA) and ALK6 (ABD50, Merck Millipore, Billerica, USA), pSmad1/5/8 (13820, Cell Signaling, Danvers, USA), Arnt (3718, Cell Signaling, Danvers, USA), Fkbp12 (ab2918, Abcam Biochemicals, Cambridge, UK), NFATc1 (sc-7294, Santa Cruz Biotechnology, Dallas, USA), NFATc2 (sc-7295, Santa Cruz Biotechnology, Dallas, USA), β-actin (A5316, Sigma, St. Louis, USA) and Gapdh (5G4, HyTest, Turku, Finland), secondary HRP-conjugated antibodies were used (Dako, Glostrup, Denmark). Luminescence was detected by using chemiluminescent substrate (Cell Signaling, Danvers, USA) on a ChemiDoc XRS system (Bio-Rad, Hercules, USA). Native protein samples were prepared with Native PAGE Sample Prep kit (Novex, Carlsbad, USA) according to the manufacturer's instruction. […]

The subject of series [6] is human proximal tubular epithelial cells (HK2 cells). The series is described as follows: Human TEC cultures (HK2 cells): ARNT/ALK3 and pSmad1/5/8. The format is cell-based. The conditions noted are these: picomolar FK506. The procedure: HK-2 (ATTC, Manassas, USA) are immortalized proximal tubule epithelial cells derived from normal adult human kidney. The murine proximal tubular epithelial cell line MCT was generated from the renal cortex of SJL mice (75). All cells were routinely tested negative for the presence of mycoplasma contamination. None of the cell lines used in this manuscript is listed in the ICLAC and NCBI Biosample database of misidentified cell lines. Cells were cultured in Dulbecco's modified Eagle's (DMEM, Gibco, Carlsbad, USA) medium supplemented with 100 µg/mL penicillin, 100 µg/mL streptomycin and 10% heat-inactivated fetal bovine serum (FBS, Sigma, St. Louis, USA) at 37° C. in 5% CO2. For RNA extractions, cells were seeded in 6 well culture plates at 10^5 cells per well in antibiotic free standard growth medium. […] Cells were harvested for further analysis 6 hours after incubation. To examine de novo protein syntheses, cells were again plated in 6 well culture plates as initially described and then pre-treated with the translation blocker Cycloheximide (CHX, 10 μg/mL, Sigma, St. Louis, USA). After one hour of incubation, 200 pM FK506 was applied for additional 6 hours. […] The relative expression levels were calculated using the equation 2^−ddCt.

Consider `C=CC[C@@H]1/C=C(\C)C[C@H](C)C[C@H](OC)[C@H]2O[C@@](O)(C(=O)C(=O)N3CCCC[C@H]3C(=O)O[C@H](/C(C)=C/[C@@H]3CC[C@@H](O)[C@H](OC)C3)[C@H](C)[C@@H](O)CC1=O)[C@H](C)C[C@@H]2OC` [FK506, tacrolimus], for which the FK506 blood concentration in series [1] (0.02 mg/kg orally per day) is 245 ± 73 pg/mL; in series [1] (0.075 mg/kg orally per day), 452 ± 71 pg/mL; in series [1] (0.2 mg/kg orally per day), 535 ± 36 pg/mL. For the same compound, in series [2], the FKBP12/YY1 interaction entry is reported as “not detectable”. For the same compound, in series [3], the “ARNT/HIF1α or ARNT/AHR interaction” value is given as “did not provide evidence”. For the same compound, the “YY1 binding to the ARNT proximal promoter” value in series [4] is recorded as “reduced”. Also, the “formation of ARNT dimers in total kidney lysates” value in series [5] was “increased formation of ARNT dimers”. In addition, the “ARNT and ALK3 transcription” value in series [6] was “equally induced”. Further, the “nuclear pSmad1/5/8” value in series [6] is listed as “nuclear accumulation of pSmad1/5/8”.
